Data: patent US6087119A, “Method for determining the catalytic activity of factor IXa” (Roche Diagnostics GmbH, priority 1996, dated 2000)
Values joined by “and” are separate entries in the source; they are usually repeats but may differ in a detail not shown here. Equal entries are not always repeated. Where two headings read alike, the source gives them in different places.

What was measured:
thrombin (bovine) = thrombin (bovine) (Bos taurus, UniProt P00735); conditions: thrombin 0.045 μmol/l, MeSO2-D-HHT-Gly-Arg-pNA 1.02 mmol/l, pH 7.4
Description: Thrombin Test Mixture (Concentration in the Test)
(§1) 42 mmol/l Tris-HCl, pH 7.4
(§2) 1.02 mmol/l MeSO2 -D-HHT-Gly-Arg-pNA
0.045 μmol/l thrombin (bovine)
(§3) 0-50% ethanol or ethylene glycol

rFIXa (human) [1] = target: T1, rFIXa (human) (Homo sapiens, UniProt P00740); experiment: Influence of alcohols and organic solvents on the activity of rFIXa, chromogenic peptide substrates; type: biochemical; set-up: coding for the FIX protease domain from amino acid position 181 to 415; Met (ATG start codon) (N); made in house; conditions: for V/V0: pH 7.4
Experimental: The reaction was started by adding FIXa.
MeSO2 -D-HHT-Gly-Arg-pNA→MeSO2 -D-HHT-Gly-Arg+pNA measurement signal: pNA
0.48 μmol/l rFIXa (human)
0-50% (alcohol or organic solvent)
The ratio V/V0 was calculated to illustrate the stimulation of the catalytic activity of rFIXa.
V0, reaction rate without additives
V, reaction rate in the presence of additives
Test Mixture Chromogenic (Concentration in the Test)
Target sequence in this assay (P00740 227-461 limits assumed): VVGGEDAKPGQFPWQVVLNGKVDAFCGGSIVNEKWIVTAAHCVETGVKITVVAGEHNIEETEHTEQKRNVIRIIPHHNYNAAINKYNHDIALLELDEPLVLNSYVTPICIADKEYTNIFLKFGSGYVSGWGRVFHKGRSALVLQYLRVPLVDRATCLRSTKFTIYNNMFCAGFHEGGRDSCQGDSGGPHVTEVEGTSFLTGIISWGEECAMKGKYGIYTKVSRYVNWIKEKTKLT
Target sequence in this assay (P00740 131-226 partner limits assumed): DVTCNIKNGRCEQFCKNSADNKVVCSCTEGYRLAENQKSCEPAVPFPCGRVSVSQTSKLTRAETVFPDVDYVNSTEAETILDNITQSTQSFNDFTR

rFIXa (human) [2] = target: T1, rFIXa (human); conditions: fluorogenic MeSO2-D-CHA-Gly-Arg-AMC 0.51 mmol/l, 0.08 μmol/l rFIXa, pH 7.4
Description: The stimulation of human rFIXa by ethanol and ethylene glycol was examined using the peptide substrates MeSO2 -D-HHT-Gly-Arg-pNA (Pefachrom tPA, Pentapharm Ltd., Basel, Switzerland), MOC-D-Nle-Gly-Arg-pNA (Chromozym X, Boehringer Mannheim GmbH, Mannheim, Germany, Cat.No. 789763), MeSO2 -D-CHG-Gly-Arg-pNA (Pentapharm Ltd., Basel, Switzerland), MeSO2 -D-CHA-Gly-Arg-pNA (Pentapharm Ltd., Basel, Switzerland) and MeSO2 -D-CHA-Gly-Arg-AMC (Pentapharm Ltd., Basel, Switzerland).
Test Mixture Fluorogenic (Concentration in the Test)
0.51 mmol/l MeSO2 -D-CHA-Gly-Arg-AMC
0.08 μmol/l rFIXa (human)
Target sequence in this assay (P00740 227-461): as the sequence (P00740 227-461 limits assumed) above
Target sequence in this assay (P00740 131-226): as the sequence (P00740 131-226 partner limits assumed) above

FXa (bovine) = FXa (bovine) (Bos taurus, UniProt P00743); conditions: FXa 0.088 μmol/l, MeSO2-D-HHT-Gly-Arg-pNA 1.02 mmol/l, pH 7.4
FXa (bovine), sequence (P00743 234-492 limits assumed): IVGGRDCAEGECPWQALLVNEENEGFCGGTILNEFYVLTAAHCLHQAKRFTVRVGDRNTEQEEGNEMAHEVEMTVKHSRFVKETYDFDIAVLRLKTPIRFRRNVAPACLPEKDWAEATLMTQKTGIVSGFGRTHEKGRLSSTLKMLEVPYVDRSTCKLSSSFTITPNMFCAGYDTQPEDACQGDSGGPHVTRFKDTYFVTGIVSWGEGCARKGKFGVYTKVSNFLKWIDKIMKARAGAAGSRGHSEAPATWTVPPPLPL
FXa (bovine), sequence (P00743 41-180 partner limits assumed): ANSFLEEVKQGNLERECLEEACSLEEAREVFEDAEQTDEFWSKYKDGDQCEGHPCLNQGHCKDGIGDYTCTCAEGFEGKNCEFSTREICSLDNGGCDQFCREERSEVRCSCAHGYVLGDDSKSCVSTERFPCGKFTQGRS
Description: FXa Test Mixture (concentration in the Test)
as §1, §2
0.088 μmol/l FXa (bovine)
as §3

FXIIa (human) = FXIIa (human) (Homo sapiens, UniProt P00748); conditions: FXIIa 0.0045 U/ml, MeSO2-D-HHT-Gly-Arg-pNA 1.02 mmol/l, pH 7.4
FXIIa (human), sequence (P00748 373-615 limits assumed, other chains not shown): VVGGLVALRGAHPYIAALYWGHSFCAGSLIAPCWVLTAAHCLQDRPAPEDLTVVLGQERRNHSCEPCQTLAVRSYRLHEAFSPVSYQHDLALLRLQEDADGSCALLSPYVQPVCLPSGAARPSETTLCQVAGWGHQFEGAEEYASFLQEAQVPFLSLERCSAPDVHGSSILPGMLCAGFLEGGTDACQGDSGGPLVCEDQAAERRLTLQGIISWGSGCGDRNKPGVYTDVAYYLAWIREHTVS
Description: FXIIa Test Mixture (Concentration in the Test)
as §1, §2
0.0045 U/ml FXIIa (human)
as §3

[3] = target: plasma kallikrein (human) (Homo sapiens, UniProt P03952); conditions: PKallikrein 0.0176 U/ml, MeSO2-D-HHT-Gly-Arg-pNA 1.02 mmol/l, pH 7.4
plasma kallikrein (human), sequence (P03952 391-638 limits assumed): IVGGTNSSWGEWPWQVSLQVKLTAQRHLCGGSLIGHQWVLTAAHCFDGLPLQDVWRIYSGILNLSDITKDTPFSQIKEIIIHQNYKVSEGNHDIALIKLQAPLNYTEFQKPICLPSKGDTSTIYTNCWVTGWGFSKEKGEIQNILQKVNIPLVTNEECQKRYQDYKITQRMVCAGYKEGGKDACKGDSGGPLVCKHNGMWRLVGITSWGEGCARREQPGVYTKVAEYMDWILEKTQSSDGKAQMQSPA
plasma kallikrein (human), sequence (P03952 20-390 partner limits assumed): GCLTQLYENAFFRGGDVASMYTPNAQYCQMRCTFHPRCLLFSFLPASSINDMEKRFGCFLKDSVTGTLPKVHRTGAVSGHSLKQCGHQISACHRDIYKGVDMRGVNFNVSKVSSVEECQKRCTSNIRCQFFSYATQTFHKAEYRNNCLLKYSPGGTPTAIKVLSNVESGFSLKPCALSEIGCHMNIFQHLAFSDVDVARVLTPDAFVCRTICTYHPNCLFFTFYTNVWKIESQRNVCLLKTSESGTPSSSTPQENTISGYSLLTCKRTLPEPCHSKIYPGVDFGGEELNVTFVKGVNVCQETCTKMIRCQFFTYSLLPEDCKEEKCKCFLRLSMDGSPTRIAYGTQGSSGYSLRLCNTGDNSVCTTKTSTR
Description: Plasma Kallikrein Test Mixture (Concentration in the Test)
as §1, §2
0.0176 U/ml plasma kallikrein (human)
as §3

native FIXa (human) = native FIXa (human) (Homo sapiens, UniProt P00740); conditions: pH 7.4; for V/V0: MeSO2-D-HHT-Gly-Arg-pNA 1.02 mmol/l, 0.14 μmol/l native FIXa
native FIXa (human), sequence (P00740 227-461 limits assumed): as the sequence (P00740 227-461 limits assumed) above
native FIXa (human), sequence (P00740 47-191 partner limits assumed): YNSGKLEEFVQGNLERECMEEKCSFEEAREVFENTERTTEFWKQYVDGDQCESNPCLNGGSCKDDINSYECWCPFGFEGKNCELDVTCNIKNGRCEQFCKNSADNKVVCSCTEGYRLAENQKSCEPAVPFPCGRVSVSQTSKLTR
Experimental: The FIXa test was carried out with recombinantly produced native human FIXa as a sample and the peptide substrate MeSO2 -D-HHT-Gly-Arg-pNA (Pefachrom tPA, Pentapharm Ltd., Basel, Switzerland) or other chromogenic/fluorogenic substrates of the R-D-Xxx-Gly-Arg-pNA type (EP-B 0 034 122) in Tris-HCl buffer and the substances to be tested (alcohol, solvents and inhibitors). The reaction was started by adding FIXa.
The test mixture was incubated at room temperature (25° C.) in a microtitre plate and the change in absorbance (ΔA/min) was measured at 405 nm using an ELISA reader. The activity and the kinetic constants were determined from the linear initial slope according to the Michaelis-Menten equation.
as §2
0.14 μmol/l native FIXa (human)
as §3
FIXa Test Mixture (Concentration in the Test)

FXIa (human) = FXIa (human) (Homo sapiens, UniProt P03951); conditions: FXIa 0.0012 μmol/l, MeSO2-D-HHT-Gly-Arg-pNA 1.02 mmol/l, pH 7.4
FXIa (human), sequence (P03951 388-625 limits assumed): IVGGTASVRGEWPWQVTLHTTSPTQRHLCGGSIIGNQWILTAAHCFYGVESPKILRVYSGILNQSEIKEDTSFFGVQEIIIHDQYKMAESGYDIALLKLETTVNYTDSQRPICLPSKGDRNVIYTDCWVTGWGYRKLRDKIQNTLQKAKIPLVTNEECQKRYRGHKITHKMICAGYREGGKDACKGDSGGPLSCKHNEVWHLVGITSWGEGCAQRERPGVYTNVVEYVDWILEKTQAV
FXIa (human), sequence (P03951 19-387 partner limits assumed): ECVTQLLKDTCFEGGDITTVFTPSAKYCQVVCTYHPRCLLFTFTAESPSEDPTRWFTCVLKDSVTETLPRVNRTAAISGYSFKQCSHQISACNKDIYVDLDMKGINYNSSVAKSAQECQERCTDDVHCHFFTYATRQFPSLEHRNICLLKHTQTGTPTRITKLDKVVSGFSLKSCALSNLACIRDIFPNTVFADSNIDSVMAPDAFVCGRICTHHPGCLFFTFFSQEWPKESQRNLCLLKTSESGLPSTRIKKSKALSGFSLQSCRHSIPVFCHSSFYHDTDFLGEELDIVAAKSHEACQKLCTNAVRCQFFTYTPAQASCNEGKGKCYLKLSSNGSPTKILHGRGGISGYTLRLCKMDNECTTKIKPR
Description: FXIa Test Mixture (Concentration in the Test)
as §1, §2
0.0012 μmol/l FXIa (human)
as §3

OCCO [Ethylene glycol]
V/V0 (thrombin (bovine); 8% alcohol): 0.924 | V/V0 (thrombin (bovine); 16% alcohol): 0.862 | V/V0 (thrombin (bovine); 25% alcohol): 0.763 | V/V0 (thrombin (bovine); 33% alcohol): 0.653 | V/V0 (thrombin (bovine); 41% alcohol): 0.508 | V/V0 (thrombin (bovine); 50% alcohol): 0.395 | V/V0 (rFIXa (human) [1]; 8% additive, MOC-D-Nle-Gly-Arg-pNA 0.82 mmol/l, 0.48 μmol/l rFIXa): 3.91 | V/V0 (rFIXa (human) [1]; 8% additive, MeSO2-D-CHA-Gly-Arg-pNA 1.02 mmol/l, 0.48 μmol/l rFIXa): 2.84 | V/V0 (rFIXa (human) [1]; 8% additive, MeSO2-D-CHG-Gly-Arg-pNA 1.02 mmol/l, […] rFIXa): 5.47 | V/V0 (rFIXa (human) [1]; 8% additive, MeSO2-D-HHT-Gly-Arg-pNA 1.02 mmol/l, 0.48 μmol/l rFIXa): 2.91 | V/V0 (rFIXa (human) [1]; 16% additive, MOC-D-Nle-Gly-Arg-pNA 0.82 mmol/l, 0.48 μmol/l rFIXa): 8.85 | V/V0 (rFIXa (human) [1]; 16% additive, MeSO2-D-CHA-Gly-Arg-pNA 1.02 mmol/l, 0.48 μmol/l rFIXa): 6.26 | V/V0 (rFIXa (human) [1]; 16% additive, MeSO2-D-CHG-Gly-Arg-pNA 1.02 mmol/l, […] rFIXa): 13.13 | V/V0 (rFIXa (human) [1]; 16% additive, MeSO2-D-HHT-Gly-Arg-pNA 1.02 mmol/l, 0.48 μmol/l rFIXa): 6.05 | V/V0 (rFIXa (human) [1]; 25% additive, MOC-D-Nle-Gly-Arg-pNA 0.82 mmol/l, 0.48 μmol/l rFIXa): 17.07 | V/V0 (rFIXa (human) [1]; 25% additive, MeSO2-D-CHA-Gly-Arg-pNA 1.02 mmol/l, 0.48 μmol/l rFIXa): 9.34 | V/V0 (rFIXa (human) [1]; 25% additive, MeSO2-D-CHG-Gly-Arg-pNA 1.02 mmol/l, […] rFIXa): 19.37 | V/V0 (rFIXa (human) [1]; 25% additive, MeSO2-D-HHT-Gly-Arg-pNA 1.02 mmol/l, 0.48 μmol/l rFIXa): 10.27 | V/V0 (rFIXa (human) [1]; 33% additive, MOC-D-Nle-Gly-Arg-pNA 0.82 mmol/l, 0.48 μmol/l rFIXa): 22.42 | V/V0 (rFIXa (human) [1]; 33% additive, MeSO2-D-CHA-Gly-Arg-pNA 1.02 mmol/l, 0.48 μmol/l rFIXa): 11.18 and 11 | V/V0 (rFIXa (human) [1]; 33% additive, MeSO2-D-CHG-Gly-Arg-pNA 1.02 mmol/l, […] rFIXa): 23.20 | V/V0 (rFIXa (human) [1]; 33% additive, MeSO2-D-HHT-Gly-Arg-pNA 1.02 mmol/l, 0.48 μmol/l rFIXa): 12.68 | V/V0 (rFIXa (human) [1]; 41% additive, MOC-D-Nle-Gly-Arg-pNA 0.82 mmol/l, 0.48 μmol/l rFIXa): 17.80 | V/V0 (rFIXa (human) [1]; 41% additive, MeSO2-D-CHA-Gly-Arg-pNA 1.02 mmol/l, 0.48 μmol/l rFIXa): 7.54 | V/V0 (rFIXa (human) [1]; 41% additive, MeSO2-D-CHG-Gly-Arg-pNA 1.02 mmol/l, […] rFIXa): 17.40 | V/V0 (rFIXa (human) [1]; 41% additive, MeSO2-D-HHT-Gly-Arg-pNA 1.02 mmol/l, 0.48 μmol/l rFIXa): 9.68 | V/V0 (rFIXa (human) [1]; 50% additive, MOC-D-Nle-Gly-Arg-pNA 0.82 mmol/l, 0.48 μmol/l rFIXa): 6.96 | V/V0 (rFIXa (human) [1]; 50% additive, MeSO2-D-CHA-Gly-Arg-pNA 1.02 mmol/l, 0.48 μmol/l rFIXa): 2.56 | V/V0 (rFIXa (human) [1]; 50% additive, MeSO2-D-CHG-Gly-Arg-pNA 1.02 mmol/l, […] rFIXa): 5.67 | V/V0 (rFIXa (human) [1]; 50% additive, MeSO2-D-HHT-Gly-Arg-pNA 1.02 mmol/l, 0.48 μmol/l rFIXa): 3.41 | quotient V/V0 relative to that with substrate MeSO2-D-HHT-Gly-Arg-pNA (rFIXa (human) [1]; above 25% ethylene glycol, substrates MOC-D-Nle-Gly-Arg-pNA and MeSO2-D-CHG-Gly-Arg-pNA): 1.5-2 fold | stimulation of the activity of rFIXa (rFIXa (human) [1]; concentration range of 15-40%): 5-15 fold | V/V0 (rFIXa (human) [2]; 8% additive): 2.55 | V/V0 (rFIXa (human) [2]; 16% additive): 5.59 | V/V0 (rFIXa (human) [2]; 25% additive): 8.40 | V/V0 (rFIXa (human) [2]; 33% additive): 8.90 and 9 | V/V0 (rFIXa (human) [2]; 41% additive): 5.79 | V/V0 (rFIXa (human) [2]; 50% additive): 1.44 | V/V0 (FXa (bovine); 8% alcohol): 0.973 | V/V0 (FXa (bovine); 16% alcohol): 0.902 | V/V0 (FXa (bovine); 25% alcohol): 0.741 | V/V0 (FXa (bovine); 33% alcohol): 0.558 | V/V0 (FXa (bovine); 41% alcohol): 0.347 | V/V0 (FXa (bovine); 50% alcohol): 0.191 | V/V0 (FXIIa (human); 8% alcohol): 0.892 | V/V0 (FXIIa (human); 16% alcohol): 0.729 | V/V0 (FXIIa (human); 25% alcohol): 0.551 | V/V0 (FXIIa (human); 33% alcohol): 0.355 | V/V0 (FXIIa (human); 41% alcohol): 0.187 | V/V0 (FXIIa (human); 50% alcohol): 0.103 | V/V0 ([3]; 8% alcohol): 1.05 | V/V0 ([3]; 16% alcohol): 0.763 | V/V0 ([3]; 25% alcohol): 0.676 | V/V0 ([3]; 33% alcohol): 0.536 | V/V0 ([3]; 41% alcohol): 0.478 | V/V0 ([3]; 50% alcohol): 0.290 | activation among plasma kallikrein, FXIIa, FXIa, FIXa, FXa and thrombin (in words) (native FIXa (human); 0-50% alcohol, MeSO2-D-HHT-Gly-Arg-pNA): only FIXa is activated | V/V0 (native FIXa (human); 8% additive): 3.13 | V/V0 (native FIXa (human); 16% additive): 6.19 | V/V0 (native FIXa (human); 25% additive): 9.36 | V/V0 (native FIXa (human); 33% additive): 12.21 | V/V0 (native FIXa (human); 41% additive): 8.29 | V/V0 (native FIXa (human); 50% additive): 3.92 | V/V0 (FXIa (human); 8% alcohol): 0.922 | V/V0 (FXIa (human); 16% alcohol): 0.790 | V/V0 (FXIa (human); 25% alcohol): 0.569 | V/V0 (FXIa (human); 33% alcohol): 0.422 | V/V0 (FXIa (human); 41% alcohol): 0.275 | V/V0 (FXIa (human); 50% alcohol): 0.165
